Measured values reported in publication PMC13065080, “Discovery of a potent anti-Zika virus benzamide series targeting the viral protein NS4B” (PLOS Pathogens, 2026).
Like-named read-outs stand apart in the source and are kept apart here.

How the values were obtained:
NS3-NS4B interaction = NS3-NS4B interaction (Zika virus, UniProt A0A142I5B9); format: cell-based
DENV Type 4 H241 = assay: microbe, parasite or virus in culture; format: cell-based; conditions: Dengue virus, read-out: EC50 DENV Type 4 H241
ZIKV DAK-41525-MA = assay: CPE-protection assay, ZIKV DAK-41525-MA; format: cell-based, Zika virus; conditions: Zika virus
ZIKV-RLuc NS4B A245T = format: cell-based, Zika virus
ZIKV PLCal [1] = assay: Virus yield (titer) reduction assay in Huh 7.5.1 cells; format: cell-based, Zika virus; conditions: 1 µM
Vero76 = conditions: African green monkey
JEV SA-14 = assay: CPE-protection assay, JEV; format: cell-based, Japanese encephalitis virus; conditions: Japanese encephalitis virus
YFV 17D = assay: microbe, parasite or virus in culture; format: cell-based; conditions: Yellow fever virus; CPE-protection
ZIKV viral E protein = assay: Viral E protein expression by fluorescence microscopy (4G2 antibody); format: cell-based, Zika virus; conditions: ZIKV-infected Vero76, 2 days post infection
IFN-α/β induction = assay: Interferon response measurement in ZIKV-infected Huh 7.5.1 cells; format: cell-based; conditions: Huh 7.5.1, ZIKV MOI 3, 24 h.p.i.
Experimental: Huh 7.5.1. cells were infected with ZIKV with/without test compound treatment, and the supernatants were harvested at 24 h.p.i. and tested for interferon- α/β (IFN- α/β) following the manufacturer’s protocol. HEK-Blue IFN-α/β cells (5000 cells/well) were incubated in 96-well plates with 20 µL of test samples for overnight. The following day, 20 µL of the cell supernatant from the HEK-Blue IFN-α/β cells were further incubated with 180 µL of pre-warmed Quanti-blue SEAP reagent (Invivogen) for 2 hours and the O.D. A620 was measured using a Cytation 1 (Agilent). As a positive and negative control, recombinant human IFN-α2b (InvivoGen, 30 pg/ml) and conditioned media from mock-infected Huh 7.5.1. were used.

ZIKV FLR = assay: microbe, parasite or virus in culture; format: cell-based; conditions: Zika virus; CPE-protection
ZIKV = assay: Combination treatment and synergy scoring, CPE-based anti-ZIKV assay; format: cell-based; conditions: Zika virus; single agent, Fig 6A; read-out: EC50 as a single agent in the dose-response anti-ZIKV assay
ZIKV PLCal [2] = assay: CPE-based anti-ZIKV concentration-response assay (96-well); format: cell-based, Zika virus; conditions: Zika virus, 72 h; Vero 76, MOI 0.05, 3-day incubation, CellTiter-Glo; read-out: EC50-CPE ZIKV-PLCal
ZIKV-RLuc = assay: microbe, parasite or virus in culture; format: cell-based, Zika virus; conditions: wild type ZIKV-RLuc, Vero 76, MOI 0.1, three days, read-out: EC50 ZIKV-RLuc
in vitro = conditions: African green monkey, CC50 Vero76
ZIKV MR766 = assay: microbe, parasite or virus in culture; format: cell-based; conditions: Zika virus; CPE-protection
WNV NY-99 = assay: CPE-protection assay, WNV; format: cell-based, West Nile virus; conditions: West Nile virus
ZIKV PLCal [3] = assay: Virus yield (titer) reduction assay in Vero 76 cells; format: cell-based, Zika virus; conditions: 5 µM, Vero 76, 0.05 m.o.i., two days
ZIKV Ib H30656 = assay: microbe, parasite or virus in culture; format: cell-based; conditions: Zika virus; CPE-protection
ZIKV-RLuc NS4B mutants = format: cell-based, Zika virus
ZIKV PRVABC59 = assay: microbe, parasite or virus in culture; format: cell-based; conditions: Zika virus; CPE-protection
ZIKV-RLuc NS4B V248G = format: cell-based, Zika virus
ZIKV-RLuc NS4B V241L = format: cell-based, Zika virus
[4] = test system: cleavage between NS4B and NS5; assay: NS4B-NS5 polyprotein processing; format: cell-based, Zika virus; conditions: HEK-293T
CHIKV = assay: microbe, parasite or virus in culture; format: cell-based; conditions: Chikungunya virus, Vero 76, read-out: EC50-CPE CHIKV

In the case of CC(C)(C)c1ccc(C(=O)NC2CCCC2)cc1 [MWAC-3475], the “disruption of NS3-NS4B interaction” value (NS3-NS4B interaction) is reported as “did not inhibit either of these steps”, the EC50 (DENV Type 4 H241) is reported as greater than 50 µM and the EC50 (ZIKV DAK-41525-MA) is reported as 1540 ± 270 nM. For the same compound, the EC50 (ZIKV-RLuc NS4B A245T) was 2290 nM, the “Fold-increase / fold-change of EC50, NS4B A245T vs wild type” value (ZIKV-RLuc NS4B A245T) was 5.91 and the “VYR: Virus Yield reduction (Log 10)” value (ZIKV PLCal [1]) was -0.36 ± 0.07 Log 10. For the same compound, the CC50 (Vero76) was 28.1 ± 6.5 µM, the EC50 (JEV SA-14) was greater than 50 µM and the EC50 (YFV 17D) was greater than 50 µM. For the same compound, the “intensity and abundance of viral E protein (4G2 antibody)” value (ZIKV viral E protein) was “decreased in a concentration-dependent manner”, the “induction of interferon in the infected cells” value (IFN-α/β induction) was “did not inhibit either of these steps” and the EC50 (ZIKV FLR) was 1130 ± 110 nM. The EC50 (ZIKV) was 616 nM, the EC50 (ZIKV PLCal [2]) was 630 ± 650 nM and the EC50 (ZIKV-RLuc; Zika virus, Vero 76, 72 h) was 390 nM. For the same compound, the EC50 (ZIKV-RLuc) was 340 ± 280 nM, the CC50 (in vitro) was 28 µM and the EC50 (ZIKV MR766) was 5.93 ± 1.26 µM. For the same compound, the EC50 (WNV NY-99) was greater than 50 µM, the “reduction in progeny virus titers” value (ZIKV PLCal [3]) was greater than 1000 fold and the EC50 (ZIKV Ib H30656) was 1010 ± 210 nM. For the same compound, the “fold decrease in potency by NS4B mutations” value (ZIKV-RLuc NS4B mutants) was 6- to 55 fold, the EC50 (ZIKV PRVABC59) was 910 ± 200 nM and the EC50 (ZIKV-RLuc NS4B V248G) was 5.12 µM. For the same compound, the “Fold-increase / fold-change of EC50, NS4B V248G vs wild type” value (ZIKV-RLuc NS4B V248G) was 13.20, the EC50 (ZIKV-RLuc NS4B V241L) was 21.4 µM and the “Fold-increase / fold-change of EC50, NS4B V241L vs wild type” value (ZIKV-RLuc NS4B V241L) was 55.24. For the same compound, the “effect on cleavage between NS4B and NS5” value [4] was “no such effect was detected” and the EC50 (CHIKV) was greater than 50 µM.
